This passage reports mass density results from the NIST ThermoML archive (doi:10.1021/acs.jced.6b00819).

The series is described as follows: wn = mass fraction of the nth substance listed. The conditions noted are these: 100 kPa, Liquid, Pycnometric method.

SMILES strings stand for the structures. Numbers after ± are expanded uncertainties.

What is called mass density is mass per unit of volume. On to `N.N.O=S(=O)(O)O` [ammonium sulfate] + O, for which the mass density (313.15 K, w1 = 0.446) was determined as 1238 ± 2 kg/m3 and the mass density (353.15 K, w1 = 0.481) stood at 1242 ± 2 kg/m3.
